Legend:
Test in all cases: relative viability (nuclei count vs DMSO), 5 days (fraction); higher = more cells survive
[1] = compound: COc1cc(Nc2ncc3c(n2)-c2ccc(Cl)cc2C(c2c(F)cccc2OC)=NC3)ccc1C(=O)O [Alisertib]
Summary of the method: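 After an overnight hold at 37 °C, lung cancer cell lines in 1536-well plates were pinned with five library-drug doses (not always all listed), each √10 from the next, on vehicle-anchored plates. The cells stayed 5 days without fresh medium, then a one-step fix, permeabilisation and Hoechst stain preceded 4× imaging and MetaXpress nuclear counts. A plate passed only with control CV under 25% and at least one doubling. Viability is the median, over plates, of treated-well nuclei relative to vehicle-well nuclei.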

[2] = compound: COc1cc(Nc2ncc3c(n2)-c2ccc(Cl)cc2C(c2c(F)cccc2OC)=NC3)ccc1C(=O)O [Alisertib] + N=C(N)NC(=N)NCCc1ccccc1 [Phenformin] (partner 250 µM)
Summary of the method: (§1)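 Lung cancer cell lines were seeded in 1536-well plates and dosed by pin tool the next day, with either a single drug or a fixed anchor-drug dose combined with five library-drug doses (not always all listed) spaced in √10 steps. Five days later, one step fixed the cells and stained their nuclei (final 0.05% Triton X-100, 1% formaldehyde, 1 ug/ml Hoechst), and nuclei were counted on 4× images. Relative viability is the nuclei count in treated wells divided by the count in vehicle wells, and each value is the median of duplicate plates.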

[3] = compound: COc1cc(Nc2ncc3c(n2)-c2ccc(Cl)cc2C(c2c(F)cccc2OC)=NC3)ccc1C(=O)O [Alisertib] + COc1cccc2cc(-c3nc([C@H]4CC[C@H](C(=O)O)CC4)n4ncnc(N)c34)[nH]c12 [OSI-027] (partner 0.5 µM)
Summary of the method: as §1

[4] = compound: COc1cc(Nc2ncc3c(n2)-c2ccc(Cl)cc2C(c2c(F)cccc2OC)=NC3)ccc1C(=O)O [Alisertib] + CC(=O)Nc1cccc(-n2c(=O)n(C3CC3)c(=O)c3c(Nc4ccc(I)cc4F)n(C)c(=O)c(C)c32)c1 [Trametinib] (partner 0.02 µM)
Summary of the method: as §1

| Cell Line | relative viability ([1]; 0.005 µM) | relative viability ([1]; 0.01581 µM) | relative viability ([1]; 0.05 µM) | relative viability ([1]; 0.1581 µM) | relative viability ([1]; 0.5 µM) | relative viability ([2]; first compound 0.005 µM) | relative viability ([2]; first compound 0.01581 µM) | relative viability ([2]; first compound 0.05 µM) | relative viability ([2]; first compound 0.1581 µM) | relative viability ([2]; first compound 0.5 µM) | relative viability ([3]; first compound 0.005 µM) | relative viability ([3]; first compound 0.01581 µM) | relative viability ([3]; first compound 0.05 µM) | relative viability ([3]; first compound 0.1581 µM) | relative viability ([3]; first compound 0.5 µM) | relative viability ([4]; first compound 0.005 µM) | relative viability ([4]; first compound 0.01581 µM) | relative viability ([4]; first compound 0.05 µM) | relative viability ([4]; first compound 0.1581 µM) | relative viability ([4]; first compound 0.5 µM) |
| --- | --- | --- | --- | --- | --- | --- | --- | --- | --- | --- | --- | --- | --- | --- | --- | --- | --- | --- | --- | --- |
| LOU-NH91 | 0.938 | 0.958 | 0.734 | 0.478 | 0.398 | 0.582 | 0.668 | 0.508 | 0.372 | 0.32 | 0.682 | 0.719 | 0.674 | 0.389 | 0.324 | 0.783 | 0.751 | 0.663 | 0.513 | 0.425 |
| LU99A | 0.961 | 0.853 | 0.579 | 0.288 | 0.193 | 0.755 | 0.798 | 0.658 | 0.3 | 0.239 | 0.301 | 0.324 | 0.259 | 0.204 | 0.164 | 0.507 | 0.473 | 0.181 | 0.212 | 0.195 |
| LXF-289 | 0.844 | 0.672 | 0.46 | 0.183 | 0.195 | 0.434 | 0.338 | 0.325 | 0.114 | 0.109 | 0.637 | 0.656 | 0.461 | 0.123 | 0.0861 | 0.586 | 0.628 | 0.265 | 0.192 | 0.152 |
| NCI-H23 | 0.752 | 0.529 | 0.272 | 0.217 | 0.197 | 0.666 | 0.512 | 0.518 | 0.233 | 0.163 | 0.518 | 0.377 | 0.287 | 0.17 | 0.144 | 0.318 | 0.222 | 0.199 | 0.169 | 0.148 |
| NCI-H322M | 0.874 | 0.894 | 0.812 | 0.501 | 0.493 | 0.683 | 0.793 | 0.572 | 0.412 | 0.409 | 0.568 | 0.517 | 0.466 | 0.326 | 0.351 | 0.456 | 0.495 | 0.403 | 0.472 | 0.381 |
| NCI-H358 | 0.791 | 0.797 | 0.2 | 0.147 | 0.14 | 0.259 | 0.262 | 0.118 | 0.0826 | 0.0797 | 0.716 | 0.507 | 0.144 | 0.0797 | 0.0701 | 0.123 | 0.138 | 0.0961 | 0.0877 | 0.0818 |
| NCI-H1299 | 0.992 | 0.963 | 0.585 | 0.415 | 0.233 | – | – | – | – | – | – | – | – | – | – | – | – | – | – | – |
| NCI-H1563 | 0.999 | 0.943 | 0.871 | 0.903 | 0.647 | 0.664 | 0.643 | 0.674 | 0.724 | 0.539 | 0.742 | 0.768 | 0.684 | 0.695 | 0.54 | – | – | – | – | – |
| NCI-H1648 | 0.833 | 0.755 | 0.606 | 0.255 | 0.242 | – | – | – | – | – | 0.258 | 0.242 | 0.23 | 0.252 | 0.239 | – | 0.42 | 0.27 | 0.229 | 0.25 |
| NCI-H1703 | 0.871 | 0.721 | 0.57 | 0.241 | 0.143 | – | – | – | – | – | – | – | – | – | – | – | – | – | – | – |

Source: the supplement of paper PMC10307832
